Test results as given in ChEMBL document CHEMBL1126980, “New, potent anthelmintic and acaricidal agents: 4-deoxy-4-thio-substituted avermectin derivatives” (Bioorg Med Chem Lett, 1993).
Values after ≈ are worked out from the molar mass of the structure shown.

Assays:
[1] = tested on: Caenorhabditis elegans; test: Tested in vitro for the biological efficacy using Caenorhabditis elegans binding assay; type: functional, organism-based
[2] = tested on: Tetranychus urticae; test: Tested for acaricidal efficacy using a Tetranychus urticae (two-spotted spider mite, TSSM) contact assay; type: functional; parameters: concentration or dose not given beside the values
[3] = tested on: Artemia salina; test: Tested in vitro for the biological efficacy using Artemia salina (brine shrimp) immobilization assay; type: functional
[4] = tested on: Trichostrongylus colubriformis; test: Tested in vivo for the biological efficacy using Trichostrongylus colubriformis gerbil assay; type: functional

| SMILES | IC50 [1] [ng/mL] | Mortality [2] [%] | IC100 [3] [ng/mL] | ED85 [4] [mg/kg] |
| --- | --- | --- | --- | --- |
| CCC(C)[C@H]1O[C@]2(C=C[C@@H]1C)C[C@@H]1C[C@@H](C/C=C(\C)[C@@H](O[C@H]3C[C@H](OC)[C@@H](O[C@H]4C[C@H](OC)[C@H]([S+]([O-])CCO)[C@H](C)O4)[C@H](C)O3)[C@@H](C)/C=C/C=C3\CO[C@@H]4[C@H](O)C(C)=C[C@@H](C(=O)O1)[C@]34O)O2 (stereo not given in full) | > 1.27 | 13 | 1300 | 0.125 |
| CCC(C)[C@H]1O[C@]2(C=C[C@@H]1C)C[C@@H]1C[C@@H](C/C=C(\C)[C@@H](O[C@H]3C[C@H](OC)[C@@H](O[C@H]4C[C@H](OC)[C@@H](S(=O)(=O)CCO)[C@H](C)O4)[C@H](C)O3)[C@@H](C)/C=C/C=C3\CO[C@@H]4[C@H](O)C(C)=C[C@@H](C(=O)O1)[C@]34O)O2 (stereo not given in full) | 0.351 (≈ 0.364 nM) | 64 | 870 | 0.063 |
| CCC(C)[C@H]1O[C@]2(C=C[C@@H]1C)C[C@@H]1C[C@@H](C/C=C(\C)[C@@H](O[C@H]3C[C@H](OC)[C@H](SCCO)[C@H](C)O3)[C@@H](C)/C=C/C=C3\CO[C@@H]4[C@H](O)C(C)=C[C@@H](C(=O)O1)[C@]34O)O2 (stereo not given in full) |  | 94 | 870 | 0.063 |
| CCC(C)[C@H]1O[C@]2(C=C[C@@H]1C)C[C@@H]1C[C@@H](C/C=C(\C)[C@@H](O[C@H]3C[C@H](OC)[C@@H](O)[C@H](C)O3)[C@@H](C)/C=C/C=C3\CO[C@@H]4[C@H](O)C(C)=C[C@@H](C(=O)O1)[C@]34O)O2 (stereo not given in full) [AVERMECTIN MS] | 0.81 (≈ 1.11 nM) | 93 | 430 | 0.075 |
| CCC(C)[C@H]1O[C@]2(C=C[C@@H]1C)C[C@@H]1C[C@@H](C/C=C(\C)[C@@H](O[C@H]3C[C@H](OC)[C@@H](O[C@H]4C[C@H](OC)[C@@H](SCCNC(C)=O)[C@H](C)O4)[C@H](C)O3)[C@@H](C)/C=C/C=C3\CO[C@@H]4[C@H](O)C(C)=C[C@@H](C(=O)O1)[C@]34O)O2 (stereo not given in full) | 0.165 (≈ 0.169 nM) | 63 | 870 | 0.063 |
| CCC(C)[C@H]1O[C@]2(C=C[C@@H]1C)C[C@@H]1C[C@@H](C/C=C(\C)[C@@H](O[C@H]3C[C@H](OC)[C@@H](O[C@H]4C[C@H](OC)[C@@H](SCCCO)[C@H](C)O4)[C@H](C)O3)[C@@H](C)/C=C/C=C3\CO[C@@H]4[C@H](O)C(C)=C[C@@H](C(=O)O1)[C@]34O)O2 (stereo not given in full) | 0.153 (≈ 0.162 nM) | 53 | 870 | 0.25 |
| CCC(C)[C@H]1O[C@]2(CC[C@@H]1C)C[C@@H]1C[C@@H](C/C=C(\C)[C@@H](O[C@H]3C[C@H](OC)[C@@H](O[C@H]4C[C@H](OC)[C@H]([S+]([O-])CCO)[C@H](C)O4)[C@H](C)O3)[C@@H](C)/C=C/C=C3\CO[C@@H]4[C@H](O)C(C)=C[C@@H](C(=O)O1)[C@]34O)O2 (stereo not given in full) | 0.188 (≈ 0.198 nM) | 31 | 870 | 0.25 |
| CCC(C)[C@H]1O[C@]2(C=C[C@@H]1C)C[C@@H]1C[C@@H](C/C=C(\C)[C@@H](O[C@H]3C[C@H](OC)[C@H](SC)[C@H](C)O3)[C@@H](C)/C=C/C=C3\CO[C@@H]4[C@H](O)C(C)=C[C@@H](C(=O)O1)[C@]34O)O2 (stereo not given in full) | 0.422 (≈ 0.556 nM) | 100 | 6930 | 0.125 |
| CCC(C)[C@H]1O[C@]2(C=C[C@@H]1C)C[C@@H]1C[C@@H](C/C=C(\C)[C@@H](O[C@H]3C[C@H](OC)[C@@H](O[C@H]4C[C@H](OC)[C@@H]([S+]([O-])CCO)[C@H](C)O4)[C@H](C)O3)[C@@H](C)/C=C/C=C3\CO[C@@H]4[C@H](O)C(C)=C[C@@H](C(=O)O1)[C@]34O)O2 (stereo not given in full) | 0.469 (≈ 0.494 nM) | 69 | 870 | 0.063 |
